Consider 9 compounds from patent US20240190885A1, “KRAS PROTEIN DEGRADERS, PHARMACEUTICAL COMPOSITIONS THEREOF, AND THEIR THERAPEUTIC APPLICATIONS” (BioTheryX, Inc., priority 2021, published 2024).

Some results are limits rather than exact numbers.

Type in all cases: cell-based
The test system of assay [1] is SW480 (G12V) cells. The assay is described as follows: Cell viability assay (CELLTITER-GLO), SW480 cells. To be noted: Homo sapiens, 72 h, 3 days, CELLTITER-GLO luminescence, read-out: Inhibition of Cancerous Cells IC50 SW480 (G12V). How it is done: (§1) H358 and SW48 cells were cultured in RPMI 1640 media supplemented with 10% fetal bovine serum, streptomycin, and penicillin. Lovo and SW480 cells were cultured in DMEM media supplemented with 10% fetal bovine serum, streptomycin, and penicillin. The cell lines were plated in their respective medium supplemented with 2.5% fetal bovine serum, streptomycin, and penicillin. All cell lines were plated in white walled 96-well plates at 2,000 cells/well or 384-well plates at 500 cells/well, except Lovo, which were plated at 4,000 or 1,000 cells/well, respectively. The cells were incubated in DMSO (control) or a compound for 3 days at 37° C. under 5% CO2. A CELLTITER-GLO® reagent (100 μL) was then added to each well. After a 10 min incubation with shaking, luminescence was measured using an ENVISION® multimode plate reader.
Background: In ATP-based viability assays light output follows the ATP content of the culture.

For assay [2], the system named is Lovo (G13D) cells. In words: Cell viability assay (CELLTITER-GLO), Lovo cells. To be noted: Homo sapiens, 72 h, 3 days, CELLTITER-GLO luminescence, read-out: Inhibition of Cancerous Cells IC50 Lovo (G13D). How it is done: as §1
Assay [3] deals with SW48 (wt) cells. In words: Cell viability assay (CELLTITER-GLO), SW48 cells. To be noted: Homo sapiens, 72 h, 3 days, CELLTITER-GLO luminescence, read-out: Inhibition of Cancerous Cells IC50 SW48 (wt). On the procedure:
as §1

The target of assay [4] is T1, KRAS (Homo sapiens, UniProt P01116).
T1 construct: Whole cell extracts were prepared using an immunoprecipitation (IP) lysis buffer; endogenous in cells; host or cells: HEK293
T1 sequence (P01116 1-188 isoform P01116-2): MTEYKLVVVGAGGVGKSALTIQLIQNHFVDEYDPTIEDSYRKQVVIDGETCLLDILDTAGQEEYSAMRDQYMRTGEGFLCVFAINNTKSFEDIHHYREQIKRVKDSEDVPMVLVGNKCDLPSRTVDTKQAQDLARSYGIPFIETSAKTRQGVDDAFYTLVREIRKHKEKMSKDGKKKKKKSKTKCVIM
The assay is described as follows: Protein degradation assay (western blot) in HEK293 cells. Conditions: 6 h; for percent KRAS protein degradation at 3 µM: compound 3 μM; for KRAS Protein Degradation (%) 5 μM: compound 5 μM. On the procedure:
HEK293 cells were grown in RPMI 1640 media supplemented with 10% fetal bovine serum, streptomycin, and penicillin. The cells were plated in 24-well plates in the growth media. The cells were then treated with a compound at indicated concentrations for 6 h. Whole cell extracts were prepared using an immunoprecipitation (IP) lysis buffer. Briefly, the cells were washed once in PBS, and the cell pellets were resuspended in the IP lysis buffer and incubated for 15 min on ice. Cell debris was removed by centrifugation and the cleared whole cell lysates were transferred to new tubes for further analysis.
For a western blot analysis, the whole cell protein extracts were separated on 4-12% SDS-polyacrylamide gels, transferred to nitrocellulose, and probed with primary antibodies. The nitrocellulose is subsequently washed and probed with IRDYE® secondary antibodies. The signals were detected using an ODYSSEY® Imaging System. The antibodies used in the assay included anti-KRAS; […] mouse monoclonal antibody; IRDYE® 680RD goat anti-rabbit antibody; and IRDYE® 800CW goat anti-mouse antibody.
On the technique in general: A western blot detects proteins with antibodies after separation by electrophoresis.

Assay [5] relates to H358 (G12C) cells. The assay is described as follows: Cell viability assay (CELLTITER-GLO), H358 cells. Conditions: Homo sapiens, NCI-H358, 72 h, 3 days, CELLTITER-GLO luminescence, read-out: Inhibition of Cancerous Cells IC50 H358 (G12C). How it is done: as §1

The IC50 is the concentration at which inhibition is half-maximal. `Cc1nn2c(N3CCN(CCO)CC3)cc(-c3cccc(CCOCCNC(=O)CC45CC6CC(CC(C6)C4)C5)c3)nc2c1-c1ccccc1` [Compound A4, 2-(adamantan-1-yl)-N-(2-(3-(7-(4-(2-hydroxyethyl)piperazin-1-yl)-2-methyl-3-phenylpyrazolo[1,5-a]pyrimidin-5-yl)phenethoxy)ethyl)acetamide]: the IC50 is 1.2 µM in assay [1], 0.88 µM in assay [2], 1.3 µM in assay [3] and 1.6 µM in assay [5]. In assay [4], this compound showed a percent KRAS protein degradation at 3 µM of 20%. In addition, the “KRAS Protein Degradation (%) 5 μM” value in assay [4] worked out at 51%.
For `Cc1nn2c(N3CCN(CCO)CC3)cc(-c3cccc(C#CCCCCCCCOC(=O)CC45CC6CC(CC(C6)C4)C5)c3)nc2c1-c1ccccc1` [Compound A5, 9-(3-(7-(4-(2-hydroxyethyl)piperazin-1-yl)-2-methyl-3-phenylpyrazolo[1,5-a]pyrimidin-5-yl)phenyl)non-8-yn-1-yl 2-(adamantan-1-yl)acetate], the IC50 in assay [1], in assay [2], in assay [3] and in assay [5] was more than 10 µM in each case. The percent KRAS protein degradation at 3 µM in assay [4] came out at 4%. Besides, the “KRAS Protein Degradation (%) 5 μM” value in assay [4] was found to be 18%.
Take `Cc1nn2c(N3CCN(CCO)CC3)cc(-c3cccc(CCOCCOC(=O)CC45CC6CC(CC(C6)C4)C5)c3)nc2c1-c1ccccc1` [Compound A3, 2-(3-(7-(4-(2-hydroxyethyl)piperazin-1-yl)-2-methyl-3-phenylpyrazolo[1,5-a]pyrimidin-5-yl)phenethoxy)ethyl 2-(adamantan-1-yl)acetate]: the IC50 turned out to be 1.2 µM in assay [1], 0.98 µM in assay [2], 1.4 µM in assay [3] and 3.3 µM in assay [5]. The compound also gave a percent KRAS protein degradation at 3 µM in assay [4] of 0%. Also, the “KRAS Protein Degradation (%) 5 μM” value in assay [4] turned out to be 0%.
As to `Cc1nn2c(N3CCN(CCO)CC3)cc(-c3cccc(CCCCCCCCCOC(=O)CC45CC6CC(CC(C6)C4)C5)c3)nc2c1-c1ccccc1` [Compound A6, 9-(3-(7-(4-(2-hydroxyethyl)piperazin-1-yl)-2-methyl-3-phenylpyrazolo[1,5-a]pyrimidin-5-yl)phenyl)nonyl 2-(adamantan-1-yl)acetate], the IC50 in assay [1], in assay [2], in assay [3] and in assay [5] was more than 10 µM each time. In assay [4], this compound returned a percent KRAS protein degradation at 3 µM of 10%. The “KRAS Protein Degradation (%) 5 μM” value in assay [4] came out at 28%.
`Cc1nn2c(N3CCN(CCO)CC3)cc(-c3ccccc3)nc2c1-c1cccc(CCCCCCCCCNC(=O)CC23CC4CC(CC(C4)C2)C3)c1` [Compound C2, 2-(Adamantan-1-yl)-N-(9-(3-(7-(4-(2-hydroxyethyl)piperazin-1-yl)-2-methyl-5-phenylpyrazolo[1,5-a]pyrimidin-3-yl)phenyl)nonyl)acetamide]: the IC50 is 2.2 µM in assay [1], 3.4 µM in assay [2], 4.5 µM in assay [3] and more than 10 µM in assay [5]. Moreover, in assay [4], the percent KRAS protein degradation at 3 µM came to 0%. The “KRAS Protein Degradation (%) 5 μM” value in assay [4] was 0%.
Consider `Cc1nn2c(N3CCN(CCO)CC3)cc(-c3cccc(CCCCCCCCCNC(=O)CC45CC6CC(CC(C6)C4)C5)c3)nc2c1-c1ccccc1` [Compound A1, 2-(adamantan-1-yl)-N-(9-(3-(7-(4-(2-hydroxyethyl)piperazin-1-yl)-2-methyl-3-phenylpyrazolo[1,5-a]pyrimidin-5-yl)phenyl)nonyl)acetamide], for which the IC50 was more than 10 µM in assay [1], 4.5 µM in assay [2], 5 µM in assay [3] and 7.8 µM in assay [5]. Also, the percent KRAS protein degradation at 3 µM in assay [4] is 7%. In assay [4], the “KRAS Protein Degradation (%) 5 μM” value is 27%.
As to `Cc1nn2c(N3CCN(CCO)CC3)cc(-c3cccc(CCNC(=O)CC45CC6CC(CC(C6)C4)C5)c3)nc2c1-c1ccccc1` [Compound A2, 2-(adamantan-1-yl)-N-(3-(7-(4-(2-hydroxyethyl)piperazin-1-yl)-2-methyl-3-phenylpyrazolo[1,5-a]pyrimidin-5-yl)phenethyl)acetamide], the IC50 in assay [1] was 0.84 µM; in assay [2], 1.2 µM; in assay [3], 1.4 µM; in assay [5], 1.7 µM. Moreover, the percent KRAS protein degradation at 3 µM in assay [4] came to 20%. In addition, in assay [4], the “KRAS Protein Degradation (%) 5 μM” value is recorded as 54%.
With `Cc1nn2c(N3CCN(CCO)CC3)cc(-c3ccccc3)nc2c1-c1ccccc1` [drawing 106, reference compound], in assay [4], the percent KRAS protein degradation at 3 µM is 0%.
In the case of `Cc1nn2c(N3CCN(CCO)CC3)cc(-c3ccccc3)nc2c1-c1ccccc1` [drawing 105, reference compound], the IC50 in assay [1] is 1.4 µM; in assay [2], 2.6 µM; in assay [3], 2.7 µM; in assay [5], 3.3 µM.
